Literature values as cited in patent US11441162B2, “Human gut microbiome-derived biosynthetic enzymes for production of fatty acid amides” (Massachusetts Institute of Technology, priority 2019, dated 2022).

Target: T1, GPR119 (Homo sapiens, UniProt Q8TDV5)
T1 sequence (Q8TDV5 1-335): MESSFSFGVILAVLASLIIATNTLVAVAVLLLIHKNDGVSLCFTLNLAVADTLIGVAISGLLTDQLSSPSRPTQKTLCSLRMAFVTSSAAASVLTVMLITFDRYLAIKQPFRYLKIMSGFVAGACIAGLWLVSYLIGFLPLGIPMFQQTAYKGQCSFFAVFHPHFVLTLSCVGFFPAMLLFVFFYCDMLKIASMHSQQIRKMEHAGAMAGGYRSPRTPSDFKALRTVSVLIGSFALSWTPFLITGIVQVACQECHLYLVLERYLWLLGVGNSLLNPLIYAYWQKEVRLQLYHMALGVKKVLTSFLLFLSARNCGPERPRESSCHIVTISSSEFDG
Conditions: previously reported human microbiome-derived FAA GPCR modulator; read-out: GPR119 agonist at (previously reported); cited from earlier work

SMILES: CCCCCCCC/C=C\CCCCCCCC(=O)NC(CO)CO [oleoyl serinol]
- EC50: 7 µM
